In EP3784230B1, “THE USE OF TERPENIC COUMARINE DERIVATIVE MOLECULES IN THE TREATMENT OF CANCER DISEASE” (T.C. Istanbul Medipol Universitesi, priority 2018, dated 2019):
Where two headings read alike, the source gives them in different places.

Legend:
KM12 = test: Cytotoxic activity (IC50) on cancer cell line KM12; assay type: cell-based; conditions: Homo sapiens, read-out: Cytotoxic Activity ( IC 50 )
Source text: (§1) The inventors have determined the cytotoxic activity (IC 50 values) of the compounds according to the invention together with various agents present in the prior art on cell lines of different types of cancer.

A498 = test: Cytotoxic activity (IC50) on cancer cell line A498; assay type: cell-based; conditions: Homo sapiens, read-out: Cytotoxic Activity ( IC 50 )
Source text: as §1

COLO205 = test: Cytotoxic activity (IC50) on cancer cell line COLO205; assay type: cell-based; conditions: Homo sapiens, COLO 205, read-out: Cytotoxic Activity ( IC 50 )
Source text: as §1

UO31 cell line [1] = test: Cytotoxic activity (IC50) on kidney cancer cell line UO31; assay type: cell-based; conditions: Homo sapiens, UO-31; U031 (kidney cancer cell line); read-out: Cytotoxic Activity ( IC 50 )
Source text: as §1
The UO31 cell line is known to be the kidney cancer cell line. Taxol, vinblastine and vincristine anti-cancer agents are used against the kidney cancer in the state of the art.

TC32 = test: Cytotoxic activity (IC50) on cancer cell line TC32; assay type: cell-based; conditions: Homo sapiens, TC-32, read-out: Cytotoxic Activity ( IC 50 )
Source text: as §1

A673 = test: Cytotoxic activity (IC50) on cancer cell line A673; assay type: cell-based; conditions: Homo sapiens, read-out: Cytotoxic Activity ( IC 50 )
Source text: as §1

UO31 cell line [2] = conditions: Ferguson R.E. et al., Int. J. Cancer 2005, 115, 155-163, read-out: IC 50 value; cited from earlier work

| Structure (SMILES) | IC50 (KM12) [µM] | IC50 (A498) [µM] | IC50 (COLO205) [µM] | IC50 (UO31 cell line [1]) [µM] | IC50 (TC32) [µM] | IC50 (A673) [µM] | IC50 (UO31 cell line [2]) [µM] |
| --- | --- | --- | --- | --- | --- | --- | --- |
| C=C1CC[C@@H]2[C@](C)(CO)[C@H](O)CC[C@@]2(C)[C@@H]1COc1ccc2ccc(=O)oc2c1 [REFERENCE MOLECULE V] | > 50 | > 50 | > 50 | > 50 | > 50 | > 50 | – |
| CC[C@]1(O)C[C@@H]2CN(CCc3c([nH]c4ccccc34)[C@@](C(=O)OC)(c3cc4c(cc3OC)N(C)[C@H]3[C@@](O)(C(=O)OC)[C@H](OC(C)=O)[C@]5(CC)C=CCN6CC[C@]43[C@@H]65)C2)C1 [vinblastine] | – | – | – | – | – | – | > 100 |
| C=C1CC[C@@H]2C(C)(C)[C@@H](O)CC[C@@]2(C)[C@@H]1COc1ccc2ccc(=O)oc2c1 [EXAMPLE MOLECULE II] | 9.1 | 20 | > 50 | 0.38 | > 50 | > 50 | – |
| C/C(=C\COc1ccc2ccc(=O)oc2c1)CC/C=C(\C)CCC(O)C(C)(C)O (stereo not drawn) [REFERENCE MOLECULE II] | > 50 | > 50 | > 50 | 7.6 | > 50 | > 50 | – |
| C=C1CC[C@@H]2[C@](C)(COC(C)=O)[C@H](O)CC[C@@]2(C)[C@@H]1COc1ccc2ccc(=O)oc2c1 [EXAMPLE MOLECULE IV] | > 50 | > 50 | > 50 | 0.37 | > 50 | > 50 | – |
| CC(=O)O[C@H]1C(=O)[C@@]2(C)[C@H]([C@H](OC(=O)c3ccccc3)[C@]3(O)C[C@H](OC(=O)[C@H](O)[C@@H](NC(=O)c4ccccc4)c4ccccc4)C(C)=C1C3(C)C)[C@]1(OC(C)=O)CO[C@@H]1C[C@@H]2O [taxol] | – | – | – | – | – | – | > 50 |
| C=C1CC[C@H]2[C@@](C)(CCC(=O)[C@@]2(C)COC(C)=O)[C@@H]1COc1ccc2ccc(=O)oc2c1 [REFERENCE MOLECULE IV] | > 50 | > 50 | > 50 | > 50 | > 50 | > 50 | – |
| C=C1CC[C@@H]2[C@](C)(COC(C)=O)[C@@H](O)CC[C@@]2(C)[C@@H]1COc1ccc2ccc(=O)oc2c1 [EXAMPLE MOLECULE III] | > 50 | > 50 | > 50 | 0.017 | > 50 | > 50 | – |
| C=C1CC[C@@H]2C(C)(C)[C@H](O)CC[C@@]2(C)[C@@H]1COc1ccc2ccc(=O)oc2c1 [EXAMPLE MOLECULE I] | 2.5 | 21 | 19 | 0.75 | 45 | > 50 | – |
| CC[C@]1(O)C[C@H]2CN(CCc3c([nH]c4ccccc34)[C@@](C(=O)OC)(c3cc4c(cc3OC)N(C=O)[C@H]3[C@@](O)(C(=O)OC)[C@H](OC(C)=O)[C@]5(CC)C=CCN6CC[C@]43[C@@H]65)C2)C1 [vincristine] | – | – | – | – | – | – | > 100 |
| C=C1CC[C@@H]2C(C)(C)C(=O)CC[C@@]2(C)[C@@H]1COc1ccc2ccc(=O)oc2c1 [REFERENCE MOLECULE III] | > 50 | > 50 | > 50 | 11 | > 50 | > 50 | – |
| CC(C)=CCC/C(C)=C/CC/C(C)=C/COc1ccc2ccc(=O)oc2c1 [REFERENCE MOLECULE I] | > 50 | > 50 | > 50 | 1.8 | > 50 | > 50 | – |
| C=C1CC[C@@H]2[C@](C)(C=O)[C@@H](O)CC[C@@]2(C)[C@@H]1COc1ccc2ccc(=O)oc2c1 [EXAMPLE MOLECULE V] | > 50 | > 50 | > 50 | 0.024 | > 50 | > 50 | – |
